Laboratory results from ChEMBL document CHEMBL4402586, “2-Aminophenylpyrimidines as Novel Inhibitors of Aminoacyl-tRNA Synthetase Interacting Multifunctional Protein 2 (AIMP2)-DX2 for Lung Cancer Treatment” (J Med Chem, 2020).
Active and inactive are the calls of the source. The rule behind the calls is not given here.

Columns and labels:
A549 [1] = assay: Growth inhibition of human A549 cells by MTT assay; assay type: functional
[2] = target: T1, Aminoacyl tRNA synthase complex-interacting multifunctional protein 2 (Homo sapiens) (UniProt Q13155); assay: Inhibition of DX2-p14/ARF interaction in human SCLC cells assessed as inhibition of cell growth by MTT assay; assay type: cell-based
T1 sequence (whole entry): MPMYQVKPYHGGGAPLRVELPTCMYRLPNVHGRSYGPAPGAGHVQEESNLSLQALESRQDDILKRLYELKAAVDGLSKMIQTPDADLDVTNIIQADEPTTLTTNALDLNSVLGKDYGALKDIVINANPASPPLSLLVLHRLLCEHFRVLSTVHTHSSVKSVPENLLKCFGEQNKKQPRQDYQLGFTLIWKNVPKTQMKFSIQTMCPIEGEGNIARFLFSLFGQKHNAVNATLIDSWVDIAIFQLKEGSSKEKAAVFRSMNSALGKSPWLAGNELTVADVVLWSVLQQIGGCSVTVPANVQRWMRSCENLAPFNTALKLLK

NSCLC = assay: Growth inhibition of human NSCLC; assay type: functional
[3] = Growth inhibition of human WI26 cells incubated for 72 hrs by MTT assay
[4] = Drug level in tumor of BALB/c mouse xenografted with human NCI-H460 cells […] at 40 mg/kg, ip dosed every other day for 13 days; assay type: ADME, organism-based, Neoplasm; settings: read-out: Drug uptake
Calu-6 = assay: Growth inhibition of human Calu6 cells incubated for 72 hrs by MTT assay; assay type: functional; settings: Calu-6, 72 h
Mus musculus [5] = assay: Effect on tumor AIMP2 expression in BALB/c mouse xenografted with human NCI-H460 cells at 40 mg/kg, ip dosed every other day for 13 days by SDS-PAGE and Western blotting analysis; assay type: ADME, organism-based; settings: in vivo, 312 h
NCI-H1299 = assay: Growth inhibition of human NCI-H1299 cells incubated for 72 hrs by MTT assay; assay type: functional; settings: NCI-H1299, 72 h
[6] = Toxicity in BALB/c mouse xenografted with human NCI-H460 cells at 40 mg/kg, ip dosed every other day for 13 days; assay type: organism-based; settings: in vivo, 312 h
NCI-H460 [7] = assay: Effect on AIMP2 DX2 isoform mRNA expression in human NCI-H460 cells at 1.2 to 10 uM by RT-PCR analysis; assay type: ADME, cell-based; settings: nci-h460, 10 µM
NCI-H460 [8] = assay: Antitumor activity against human NCI-H460 cells xenografted in BALB/c mouse assessed as decrease in tumor size at 40 mg/kg, ip dosed every other day for 13 days; assay type: functional, organism-based
NCI-H460 [9] = assay: Antitumor activity against human NCI-H460 cells xenografted in BALB/c mouse assessed as decrease in tumor volume at 40 mg/kg, ip dosed every other day for 13 days; assay type: functional, organism-based
[10] = Toxicity in BALB/c mouse xenografted with human NCI-H460 cells assessed effect on body weight at 40 mg/kg, ip dosed every other day for 13 days; assay type: organism-based; settings: in vivo, 312 h
Mus musculus [11] = species: Mus musculus; settings: BALB/c, 40 mg/kg
Description: Inhibition of tumor AIMP2-DX2 expression in BALB/c mouse xenografted with human NCI-H460 cells at 40 mg/kg, ip dosed every other day for 13 days by SDS-PAGE and Western blotting analysis

NCI-H460 [12] = assay: Growth inhibition of human NCI-H460 cells incubated for 72 hrs by MTT assay; assay type: functional; settings: NCI-H460, 72 h
A549 [13] = assay: Growth inhibition of human A549 cells incubated for 72 hrs by MTT assay; assay type: functional; settings: A549, 72 h

GI50 (A549 [1]) [µM]	GI50 [2] [µM]	GI50 (Calu-6) [µM]	GI50 (NCI-H1299) [µM]	GI50 (NCI-H460 [12]) [µM]	GI50 (A549 [13]) [µM]	SMILES	GI50 (NSCLC) [µM]	growth inhibition (GI) [3]	concentration at 312 h [4] [µM]	Activity (Mus musculus [5])	Activity [6]	Activity (NCI-H460 [7])	Activity (NCI-H460 [8])	Activity (NCI-H460 [9])	Activity [10]	inhibition (Mus musculus [11])
6.5						CN1CCN(CCOc2cccc(Nc3nc(-c4ccc(Cl)cc4)cc(N4CCOCC4)n3)c2)CC1										
	5 to 10					CC1(C)Oc2cc3oc(=O)ccc3cc2C[C@@H]1OC(=O)/C=C/c1ccco1	> 50									
		4.4	4.18	0.6	2.82	COC1CCCN(c2cc(-c3ccc(Cl)cc3)nc(Nc3cccc(OCCN4CCN(C)CC4)c3)n2)C1 (stereo not drawn)		Non-Toxic	62.7	Non-Toxic	Non-Toxic	Non-Toxic	Active	Active	Non-Toxic	Active
		4.22	5.78	0.89	1.13	CN1CCN(CCOc2cccc(Nc3nccc(-c4ccc(Cl)cc4)n3)c2)CC1		Non-Toxic	0.088	Non-Toxic		Non-Toxic	Active	Active	Non-Toxic	Active
